Laboratory results: US8158792B2, “Spiropiperidines for use as tryptase inhibitors” (Janssen Pharmaceutica N.V., priority 2007, dated 2012)

Target: human lung tryptase
Experiment: β-Tryptase In-Vitro Enzyme Assay
Type: biochemical
Conditions: human lung tryptase 1 nM, substrate H-D-HHT-Ala-Arg-pNa 500 μM, pH 7.4, room temperature
Experimental: The β-tryptase assay was conducted with human lung tryptase (Cortex Biochem #CP3033) in an aqueous buffer (10 mM Tris, 10 mM Hepes, 150 mM NaCl, 0.1% PEG 8000, pH 7.4) using the chromogenic substrate H-D-HHT-Ala-Arg-pNa. […] Percent inhibition was calculated by comparing the initial reaction velocity of samples without inhibitor to those with inhibitor. The initial reaction velocities were analyzed using Microsoft Excel.

SMILES	IC50 [nM]
NCc1ccc2c(c1)C1(CCN(C(=O)c3ccc(F)c(Cl)c3)CC1)CO2 [Cpd 27, 1-(3-chloro-4-fluoro-phenyl)carbonyl-5′-aminomethyl-spiro[piperidine-4,3′-(2H)-benzo[b]furan]]	34
NCc1ccc2c(c1)C1(CCN(C(=O)C3CC(=O)c4ccccc43)CC1)CO2 (stereo not shown) [Cpd 287, 1-(3-oxo-indan-1-yl)carbonyl-5′-aminomethyl-spiro[piperidine-4,3′-(2H)-benzo[b]furan]]	4300
COc1ccccc1C#Cc1ccc(C(=O)N2CCC3(CC2)COc2ccc(CN)cc23)o1 [Cpd 173, 1-[5-(2-methoxy-phenylethynyl)-furan-2-yl]carbonyl-5′-aminomethyl-spiro[piperidine-4,3′-(2H)-benzo[b]furan]]	13
NCc1ccc2c(c1)C1(CCN(C(=O)C=C3OC(=O)c4ccccc43)CC1)CO2 [Cpd 215, 1-[1-oxo-2-(3-oxo-3H-isobenzofuran-1-ylidene)-ethyl]-5′-aminomethyl-spiro[piperidine-4,3′-(2H)-benzo[b]furan]]	760
NCc1ccc2c(c1)C1(CCN(C(=O)c3cc(-c4ccc(Cl)cc4)cs3)CC1)CO2 [Cpd 357, 1-[4-(4-chloro-phenyl)-thien-2-yl]carbonyl-5′-aminomethyl-spiro[piperidine-4,3′-(2H)-benzo[b]furan]]	280
COc1ccc(C(=O)N2CCC3(CC2)COc2ccc(CN)cc23)cc1OC [Cpd 40, 1-(3,4-dimethoxy-phenyl)carbonyl-5′-aminomethyl-spiro[piperidine-4,3′-(2H)-benzo[b]furan]]	250
NCc1ccc2c(c1)C1(CCN(C(=O)c3cccc(C(N)=O)c3)CC1)CO2 [Cpd 273, 1-(3-aminocarbonyl-phenyl)carbonyl-5′-aminomethyl-spiro[piperidine-4,3′-(2H)-benzo[b]furan]]	1200
NCc1ccc2c(c1)C1(CCN(C(=O)c3ccc(C#Cc4ccccc4)o3)CC1)CN2C(=O)CS(=O)(=O)O [Cpd 335, 1-(5-phenylethynyl-furan-2-yl)carbonyl-1′-(hydroxysulfonylmethyl)carbonyl-5′-aminomethyl-spiro[piperidine-4,3′-(2H)-indole]]	20
NCc1ccc2c(c1)C1(CCN(C(=O)c3sc4cc(F)ccc4c3Cl)CC1)CO2 [Cpd 171, 1-(3-chloro-6-fluoro-benzo[b]thien-2-yl)carbonyl-5′-aminomethyl-spiro[piperidine-4,3′-(2H)-benzo[b]furan]]	170
NCc1ccc2c(c1)C1(CCN(C(=O)Cc3cccc(C(F)(F)F)c3)CC1)CO2 [Cpd 85, 1-(3-trifluoromethyl-benzyl)carbonyl-5′-aminomethyl-spiro[piperidine-4,3′-(2H)-benzo[b]furan]]	2700
NCc1ccc2c(c1)C1(CCN(C(=O)/C=C/c3ccc(OCc4ccccc4)cc3)CC1)CO2 [Cpd 300, (E)-1-(4-benzyloxy-phenylethenyl)carbonyl-5′-aminomethyl-spiro[piperidine-4,3′-(2H)-benzo[b]furan]]	1500
NCc1ccc2c(c1)C1(CCN(C(=O)c3ccc(C#Cc4ccccc4)o3)CC1)CN2C(=O)c1nnn[nH]1 [Cpd 334, 1-(5-phenylethynyl-furan-2-yl)carbonyl-1′-(1H-tetrazol-5-yl)carbonyl-5′-aminomethyl-spiro[piperidine-4,3′-(2H)-indole]]	47
COc1ccc(CC(=O)N2CCC3(CC2)COc2ccc(CN)cc23)cc1OC [Cpd 105, 1-(3,4-dimethoxy-benzyl)carbonyl-5′-aminomethyl-spiro[piperidine-4,3′-(2H)-benzo[b]furan]]	770
NCc1ccc2c(c1)C1(CCN(C(=O)c3ccc4cc(Br)ccc4c3)CC1)CO2 [Cpd 126, 1-(6-bromo-naphthalen-2-yl)carbonyl-5′-aminomethyl-spiro[piperidine-4,3′-(2H)-benzo[b]furan]]	150
NCc1ccc2c(c1)C1(CCN(C(=O)c3ccc(C=O)s3)CC1)CO2 [Cpd 245, 1-(5-formyl-thien-2-yl)carbonyl-5′-aminomethyl-spiro[piperidine-4,3′-(2H)-benzo[b]furan]]	510
Cc1cccc(CCC(=O)N2CCC3(CC2)COc2ccc(CN)cc23)c1 [Cpd 98, 1-(3-methyl-phenethyl)carbonyl-5′-aminomethyl-spiro[piperidine-4,3′-(2H)-benzo[b]furan]]	1700
NCc1ccc2c(c1)C1(CCN(C(=O)C3=CCc4ccccc43)CC1)CO2 [Cpd 286, 1-3H-inden-1-ylcarbonyl-5′-aminomethyl-spiro[piperidine-4,3′-(2H)-benzo[b]furan]]	920
NCc1ccc2c(c1)C1(CCN(C(=O)c3cccc(Br)c3)CC1)CO2 [Cpd 29, 1-(3-bromo-phenyl)carbonyl-5′-aminomethyl-spiro[piperidine-4,3′-(2H)-benzo[b]furan]]	130
CS(=O)(=O)c1ccc(C(=O)N2CCC3(CC2)COc2ccc(CN)cc23)s1 [Cpd 169, 1-(5-methylsulfonyl-thien-2-yl)carbonyl-5′-aminomethyl-spiro[piperidine-4,3′-(2H)-benzo[b]furan]]	1600

SMILES	IC50 [nM]
NCc1ccc2c(c1)C1(CCN(C(=O)c3ccc(-c4ccc(Cl)c(Cl)c4)o3)CC1)CO2 [Cpd 138, 1-[5-(3,4-dichloro-phenyl)-furan-2-yl]carbonyl-5′-aminomethyl-spiro[piperidine-4,3′-(2H)-benzo[b]furan]]	140
NCc1ccc2c(c1)C1(CCN(C(=O)c3cccc(C(F)(F)F)c3)CC1)CO2 [Cpd 47, 1-(3-trifluoromethyl-phenyl)carbonyl-5′-aminomethyl-spiro[piperidine-4,3′-(2H)-benzo[b]furan]]	820
NCc1ccc2c(c1)C1(CCN(C(=O)c3sc4cccc(Cl)c4c3Cl)CC1)CO2 [Cpd 175, 1-(3,4-dichloro-benzo[b]thien-2-yl)carbonyl-5′-aminomethyl-spiro[piperidine-4,3′-(2H)-benzo[b]furan]]	58
NCc1ccc2c(c1)C1(CC2)CCN(C(=O)c2ccc(C#Cc3ccccc3)o2)CC1 [Cpd 318, 1-(5-phenylethynyl-furan-2-yl)carbonyl-5′-aminomethyl-spiro[piperidine-4,3′-indane]]	3.1
NCc1ccc2c(c1)C1(CCN(C(=O)/C=C/c3ccccc3F)CC1)CO2 [Cpd 309, (E)-1-(2-fluoro-phenylethenyl)carbonyl-5′-aminomethyl-spiro[piperidine-4,3′-(2H)-benzo[b]furan]]	100
NCc1ccc2c(c1)C1(CCN(C(=O)/C=C/c3cccc(OC(F)(F)F)c3)CC1)CO2 [Cpd 167, (E)-1-(3-trifluoromethoxy-phenylethenyl)carbonyl-5′-aminomethyl-spiro[piperidine-4,3′-(2H)-benzo[b]furan]]	600
NCc1ccc2c(c1)C1(CCN(C(=O)c3cccc(Cl)c3)CC1)CO2 [Cpd 39, 1-(3-chloro-phenyl)carbonyl-5′-aminomethyl-spiro[piperidine-4,3′-(2H)-benzo[b]furan]]	3700
COc1ccc(C(=O)N2CCC3(CC2)COc2ccc(CN)cc23)cc1Br [Cpd 32, 1-(3-bromo-4-methoxy-phenyl)carbonyl-5′-aminomethyl-spiro[piperidine-4,3′-(2H)-benzo[b]furan]]	41
CSc1ccc(C(=O)N2CCC3(CC2)COc2ccc(CN)cc23)cc1 [Cpd 45, 1-(4-methylthio-phenyl)carbonyl-5′-aminomethyl-spiro[piperidine-4,3′-(2H)-benzo[b]furan]]	220
NCc1ccc2c(c1)C1(CCN(C(=O)c3ccc(CCc4ccccc4)o3)CC1)CO2 [Cpd 107, 1-(5-phenethyl-furan-2-yl)carbonyl-5′-aminomethyl-spiro[piperidine-4,3′-(2H)-benzo[b]furan]]	82
NCc1ccc2c(c1)C1(CCN(C(=O)c3cc4ccccc4o3)CC1)CO2 [Cpd 160, 1-benzo[b]furan-2-ylcarbonyl-5′-aminomethyl-spiro[piperidine-4,3′-(2H)-benzo[b]furan]]	210
CCn1cc(C(=O)N2CCC3(CC2)COc2ccc(CN)cc23)c2cccc(C)c21 [Cpd 250, 1-(1-ethyl-7-methyl-indol-3-yl)carbonyl-5′-aminomethyl-spiro[piperidine-4,3′-(2H)-benzo[b]furan]]	440
NCc1ccc2c(c1)C1(CCN(C(=O)c3ccc(-c4ccc(Cl)cc4Cl)o3)CC1)CO2 [Cpd 136, 1-[5-(2,4-dichloro-phenyl)-furan-2-yl]carbonyl-5′-aminomethyl-spiro[piperidine-4,3′-(2H)-benzo[b]furan]]	25
NCc1ccc2c(c1)C1(CCN(C(=O)c3ccc(C(F)(F)F)cc3)CC1)CO2 [Cpd 71, 1-(4-trifluoromethyl-phenyl)carbonyl-5′-aminomethyl-spiro[piperidine-4,3′-(2H)-benzo[b]furan]]	910
COc1ccc(-c2cccc(C(=O)N3CCC4(CC3)COc3ccc(CN)cc34)c2)cc1 [Cpd 64, 1-[3-(4-methoxy-phenyl)-phenyl]carbonyl-5′-aminomethyl-spiro[piperidine-4,3′-(2H)-benzo[b]furan]]	95
NCc1ccc2c(c1)C1(CCN(C(=O)c3sc(SCc4ccccc4)c4c3CCC=C4)CC1)CO2 [Cpd 241, 1-(3-benzylthio-7-hydro-6H-benzo[c]thien-1-yl)carbonyl-5′-aminomethyl-spiro[piperidine-4,3′-(2H)-benzo[b]furan]]	5.1
CC(C)(C)c1ccc(C#Cc2ccc(C(=O)N3CCC4(CC3)COc3ccc(CN)cc34)o2)cc1 [Cpd 282, 1-[5-(4-tert-butyl-phenylethynyl)-furan-2-yl]carbonyl-5′-aminomethyl-spiro[piperidine-4,3′-(2H)-benzo[b]furan]]	700
NCc1cc2c(cc1F)OCC21CCN(C(=O)c2ccc(C#Cc3ccccc3)o2)CC1 [Cpd 311, 1-(5-phenylethynyl-furan-2-yl)carbonyl-5′-aminomethyl-6′-fluoro-spiro[piperidine-4,3′-(2H)-benzo[b]furan]]	39
